Test results taken from patent US20100190755A1, “TETRACYCLINE COMPOUNDS FOR THE TREATMENT OF RHEUMATOID ARTHRITIS AND RELATED METHODS OF TREATMENT” (priority 2008, published 2010).
Converted amounts (≈) assume the structure as drawn.

How the values were obtained:
[1] = tested on: collagen-induced arthritis (CIA) in male DBA/1 mice; assay: Murine collagen-induced arthritis (CIA) model, Example 2; format: in vivo, mouse
Method: Four non-antibacterial analogues of minocycline (J, W, AF and AT) were synthesized and tested in the murine model of the disease, collagen-induced arthritis (CIA) (See supra). Male DBA/1 mice were immunized intradermally with 200 μg of bovine type II collagen and boosted with collagen three weeks later. Minocycline and four non-antibacterial minocycline derivatives were administered i.p. beginning after disease onset. Paw thickness was measured and animals were scored daily.
(§1) • 1. Male DBA/1 mice were immunized i.d. with an emulsion of 200 μg bovine type II collagen in Complete Freund's Adjuvant. • 2. On day 21, mice received i.d. boost of 100 μg collagen in Incomplete Freund's Adjuvant • 3. Compounds were administered i.p. daily for 7 days starting from disease onset (day 3-4 after boost). • 4. Foot swelling was measured by an engineering micrometer and disease severity was scored accordingly (1, erythema and mild swelling confined to the tarsal or ankle joint; 2, erythema and mild swelling extending from the ankle to the mid-foot; 3, erythema and moderate swelling extending from the ankle to the metatarsal joints; 4, erythema and severe swelling encompassing the ankle, foot, and digits). • 5. Change (Δ) of paw thickness=sum of paw thickness from 4 paws of a mouse (experimental)−sum of baseline paw thickness from 4 paws of the same mouse. • 6. % inhibition=cumulative A paw thickness (disease group−compound-treated group)/cumulative A paw thickness (disease group)

MMP-9 = assay: Paw extract biomarker ELISA, CIA mice: MMP-9; format: in vivo, mouse; conditions: paw extracts from CIA mice
Method: as §1
(§2) • 1. Paws were collected from mice after 5-7 days of dosing and dissected free of skin. • 2. The paws were then homogenized in ice-cold PBS (2 ml/4 paws/mouse) containing 1× protease inhibitor using a Polytron homogenizer. • 3. Debris and particles were removed from the homogenized samples by centrifugation. • 4. Liquid layers were collected for MMP-9, IL-1, IL-6, RANKL, MCP-1, and TNFα analysis using ELISA kits from R & D System.

IL-1 = assay: Paw extract biomarker ELISA, CIA mice: IL-1; format: in vivo, mouse; conditions: paw extracts from CIA mice
Method: as §1, §2

IL-6 = assay: Paw extract biomarker ELISA, CIA mice: IL-6; format: in vivo, mouse; conditions: paw extracts from CIA mice
Method: as §1, §2

MCP-1 = assay: Paw extract biomarker ELISA, CIA mice: MCP-1; format: in vivo, mouse; conditions: paw extracts from CIA mice
Method: as §1, §2

RANKL = assay: Paw extract biomarker ELISA, CIA mice: RANKL; format: in vivo, mouse; conditions: paw extracts from CIA mice
Method: as §1, §2

[2] = tested on: cytokines (IL-1, IL-6, RANKL and MCP-1) and a matrix metalloproteinase (MMP-9); assay: Paw extract biomarker ELISA, CIA mice: whole panel (statements in words); format: in vivo, mouse
Method: as §1, §2

[3] = tested on: E. coli ATCC25922 (tetracycline sensitive); assay: E. coli MIC, broth micro-dilution per CLSI guidelines (Table 3); format: cell-based; conditions: Escherichia coli; E. coli ATCC25922, cation-adjusted Mueller Hinton broth
[4] = Pharmacokinetics in rats after i.v. and oral dosing; format: in vivo; conditions: plasma, rat
Method: Pre-cannulated (jugular vein and carotid artery for i.v. group and carotid artery for oral group) male CD/IGS rats (approximately 250 g) were used. Rats were fasted overnight prior to dosing with access to food restored 2 hours after dosing. Rats were administered with approximately 0.25 mL compound (1 mg/kg dose) for i.v. route (via jugular vein over 20 seconds) or 0.5 mL solution (5 mg/kg dose) orally. Blood (300 μL) was collected in tubes with EDTA anticoagulant at various time points, centrifuged and plasma collected and stored frozen at −20° C. Animals were euthanized by CO2 following the final blood collection. Plasma was extracted (0.1% trifluoroacetic acid in 67% acetonitrile/33% water) and levels of compound quantified by HPLC/MS against a standard curve.

S. aureus RN450 = assay: Antibacterial activity MIC, Gram+ (Table 9); format: cell-based; conditions: Staphylococcus aureus, CAMHB, 35° C., approximately 18 hr
Method: (§3) 2 mg of each compound is dissolved in 100 μl of DMSO. The solution is then added to cation-adjusted Mueller Hinton broth (CAMHB), which results in a final compound concentration of 200 μg per ml. The tetracycline compound solutions are diluted to 50 μL volumes, with a test compound concentration of 0.098 μg/ml. Optical density (OD) determinations are made from fresh log-phase broth cultures of the test strains. Dilutions are made to achieve a final cell density of 1×10^6 CFU/ml. At OD=1, cell densities for different genera should be approximately:
(§4) 50 μl of the cell suspensions are added to each well of microtiter plates. The final cell density should be approximately 5×10^5 CFU/ml. These plates are incubated at 35° C. in an ambient air incubator for approximately 18 hr. The plates are read with a microplate reader and are visually inspected when necessary. The MIC is defined as the lowest concentration of the tetracycline compound that inhibits growth.

E. coli 25922 = assay: Antibacterial activity MIC, Gram- (Table 9); format: cell-based; conditions: Escherichia coli, CAMHB, 35° C., approximately 18 hr
Method: as §3, §4

[5] = tested on: collagen-induced arthritis (CIA) in male DBA/1 mice; assay: CIA model, Example 3 (cumulative scores vs untreated controls); format: in vivo; conditions: Mus musculus; Dose 25 mg/kg
Method: The CIA model data were acquired according to the following protocol: • 1. Male DBA/1 mice were anaesthetized by i.p. injection of ketamine/xylazine (1.25 mg/ml:0.25 mg/ml, 100 μl/mouse). • 2. Anaesthetized mice were immunized intradermally at the base of the tail with 0.1 or 0.2 ml of an emulsion composed of 100 or 200 μg bovine type II collagen in Complete Freund's Adjuvant (50 μl/spot x 2 or 4 spots). • 3. At day 21 after the immunization, mice received an intradermal boost of 100 μl of an emulsion composed of 100 μg bovine type II collagen in Incomplete Freund's Adjuvant (50 μl/spot x 2 spots) • 4. After onset of disease symptoms (usually 3-4 days after boost), tetracycline derivatives were administered daily into mice via intraperitoneal or oral routes for 8 to 15 days. Methotrexate (12 mg/kg/day) or dexmethasone (4 mg/kg/day) was used as a control for inflammation suppression. • 5. The disease severity was scored daily for 8-15 days after the appearance of the symptoms. Disease severity was graded as following: • a. Visual clinical score for the presence of inflammation in the fingers/toes of the forepaws and hindpaws: • 1. Erythema and mild swelling confined to the mid-foot (tarsals) or ankle joint • 2. Erythema and mild swelling extending from the ankle to the mid-foot • 3. Erythema and moderate swelling extending from the ankle to the metatarsal joints • 4. Erythema and severe swelling encompassing the ankle, foot, and digits. • b. Clinical swelling score for the presence of paw edema in the forepaws and hindpaws: • Paw thickness was measured daily by an engineering micrometer after isofluorane inhalation or ketamine/xylazine (1.25 mg/ml:0.25 mg/ml, 100 μl/mouse) i.p. injection.
Daily scores and paw swelling measurements for each treatment group of mice were added over the total observation period to obtain a cumulative score. Cumulative scores were compared between untreated controls and treated groups to determine tetracycline-induced inhibition.

[6] = 25 mg/kg/day i.p., dosed after disease onset

C[C@@H]1C[C@H]2[C@@H]3CCC4=CC(=O)C=C[C@]4(C)[C@@]3(F)[C@@H](O)C[C@]2(C)[C@@]1(O)C(=O)CO [Dexamethasone, dexamethasone, reference compound]
% Inhibition (Change in Paw Thickness) AVG ([1]; 4 mg/kg): 82% | % Inhibition (Clinical Score) AVG ([1]; 4 mg/kg): 48% | Change in Paw Thickness (mm) Mean ([1]; day 1 of dosing, 4 mg/kg/day i.p.): 0.92 mm | Change in Paw Thickness (mm) Mean ([1]; day 2 of dosing, 4 mg/kg/day i.p.): 0.57 mm | Change in Paw Thickness (mm) Mean ([1]; day 3 of dosing, 4 mg/kg/day i.p.): 0.47 mm | Change in Paw Thickness (mm) Mean ([1]; day 4 of dosing, 4 mg/kg/day i.p.): −0.07 mm | Change in Paw Thickness (mm) Mean ([1]; day 5 of dosing, 4 mg/kg/day i.p.): 0.03 mm | Change in Paw Thickness (mm) Mean ([1]; day 6 of dosing, 4 mg/kg/day i.p.): −0.13 mm | Change in Paw Thickness (mm) Mean ([1]; day 7 of dosing, 4 mg/kg/day i.p.): 0.04 mm | Change in Paw Thickness (mm) Mean ([1]; day 8 of dosing, 4 mg/kg/day i.p.): −0.21 mm | Percent level of Biomarker Tissue [c] Compared to Untreated Control, MMP-9 AVG (MMP-9): 35% | Percent level of Biomarker Tissue [c] Compared to Untreated Control, IL-1 AVG (IL-1): 16% | Percent level of Biomarker Tissue [c] Compared to Untreated Control, IL-6 AVG (IL-6): 4% | Percent level of Biomarker Tissue [c] Compared to Untreated Control, MCP-1 AVG (MCP-1): 5% | Percent level of Biomarker Tissue [c] Compared to Untreated Control, RANKL AVG (RANKL): 10%

CN(Cc1cnc2nc(N)nc(N)c2n1)c1ccc(C(=O)N[C@@H](CCC(=O)O)C(=O)O)cc1 [Methotrexate, methotrexate, reference compound]
% Inhibition (Change in Paw Thickness) AVG ([1]; 12 mg/kg): 45% | % Inhibition (Clinical Score) AVG ([1]; 12 mg/kg): 25% | Change in Paw Thickness (mm) Mean ([1]; day 1 of dosing, 12 mg/kg/day i.p.): 0.77 mm | Change in Paw Thickness (mm) Mean ([1]; day 2 of dosing, 12 mg/kg/day i.p.): 0.68 mm | Change in Paw Thickness (mm) Mean ([1]; day 3 of dosing, 12 mg/kg/day i.p.): 0.71 mm | Change in Paw Thickness (mm) Mean ([1]; day 4 of dosing, 12 mg/kg/day i.p.): 0.68 mm | Change in Paw Thickness (mm) Mean ([1]; day 5 of dosing, 12 mg/kg/day i.p.): 0.67 mm | Change in Paw Thickness (mm) Mean ([1]; day 6 of dosing, 12 mg/kg/day i.p.): 0.56 mm | Change in Paw Thickness (mm) Mean ([1]; day 7 of dosing, 12 mg/kg/day i.p.): 0.45 mm | Change in Paw Thickness (mm) Mean ([1]; day 8 of dosing, 12 mg/kg/day i.p.): 0.28 mm | Percent level of Biomarker Tissue [c] Compared to Untreated Control, MMP-9 AVG (MMP-9): 52% | Percent level of Biomarker Tissue [c] Compared to Untreated Control, IL-1 AVG (IL-1): 16% | Percent level of Biomarker Tissue [c] Compared to Untreated Control, IL-6 AVG (IL-6): 20% | Percent level of Biomarker Tissue [c] Compared to Untreated Control, MCP-1 AVG (MCP-1): 37% | Footpad tissue levels of cytokines (IL-1, IL-6, RANKL and MCP-1) and MMP-9 after therapeutic treatment [2]: decreased

CN(C)c1ccc(O)c2c1C[C@H]1C[C@H]3[C@H](N(C)C)C(O)=C(C(N)=O)C(=O)[C@@]3(O)C(O)=C1C2=O [Minocycline, minocycline, reference compound]
MIC [3]: 1 µg/mL (≈ 2.19 µM) | bioavailability ([4]; male, CD/IGS, after oral dosing of 5 mg/kg, read-out: PK Parameters (Rat) % F, fraction of absorption): 31% | half-life ([4]; male CD/IGS rats, 1 mg/kg i.v. or 5 mg/kg oral, read-out: PK Parameters (Rat) T1/2 (converted)): 3.6 h | % Inhibition (Change in Paw Thickness) AVG [1, 6]: 22% | % Inhibition (Clinical Score) AVG [1, 6]: 18% | inhibition of the disease (CIA) ([1]; 50 mg/kg/day i.p.): 45% | EC50 in inflammation suppression in CIA mice ([1]; CIA mice, i.p. daily): >50 mg/kg/day i.p. | Change in Paw Thickness (mm) Mean ([1]; day 1 of dosing, 25 mg/kg/day i.p.): 0.74 mm | Change in Paw Thickness (mm) Mean ([1]; day 2 of dosing, 25 mg/kg/day i.p.): 0.72 mm | Change in Paw Thickness (mm) Mean ([1]; day 3 of dosing, 25 mg/kg/day i.p.): 0.78 mm | Change in Paw Thickness (mm) Mean ([1]; day 4 of dosing, 25 mg/kg/day i.p.): 0.86 mm | Change in Paw Thickness (mm) Mean ([1]; day 5 of dosing, 25 mg/kg/day i.p.): 0.93 mm | Change in Paw Thickness (mm) Mean ([1]; day 6 of dosing, 25 mg/kg/day i.p.): 1.07 mm | Change in Paw Thickness (mm) Mean ([1]; day 7 of dosing, 25 mg/kg/day i.p.): 0.92 mm | Change in Paw Thickness (mm) Mean ([1]; day 8 of dosing, 25 mg/kg/day i.p.): 1.18 mm | Percent level of Biomarker Tissue [c] Compared to Untreated Control, MMP-9 AVG (MMP-9): 104% | Percent level of Biomarker Tissue [c] Compared to Untreated Control, IL-1 AVG (IL-1): 119% | Percent level of Biomarker Tissue [c] Compared to Untreated Control, IL-6 AVG (IL-6): 114% | Percent level of Biomarker Tissue [c] Compared to Untreated Control, MCP-1 AVG (MCP-1): 102% | Percent level of Biomarker Tissue [c] Compared to Untreated Control, RANKL AVG (RANKL): 99% | MIC (S. aureus RN450): 0.06 µg/mL (≈ 0.131 µM) | MIC (E. coli 25922): 1 µg/mL (≈ 2.19 µM) | inhibition in vivo at 25 mg/kg [5]: 22%
